Experimental data from ChEMBL document CHEMBL5303304, “EUbOPEN Chemogenomics Library - IncuCyte” (2023).

Legend:
Type in all cases: toxicity, cell-based
HEK-293T = experiment: Incucyte cell viability with HEK293T; details: human, 10 µM, compound concentration 10 uM
Fibroblast = experiment: Incucyte cell viability with human fibroblast; details: 10 µM, compound concentration 10 uM
U2OS = experiment: Incucyte cell viability with U2OS; details: human, 10 µM, compound concentration 10 uM
Also: unitless GR value; below 1 slowed growth and below 0 cell loss.

CC(Sc1nc2c(cnn2-c2cccc(Cl)c2)c(=O)[nH]1)C(N)=O (centres undefined)
Growth Rate (HEK-293T; 0 h, replicate number 1): 1
Growth Rate (HEK-293T; 0 h, replicate number 2): 0.66
Growth Rate (Fibroblast; 0 h, replicate number 2): -1
Growth Rate (Fibroblast; 6 h, replicate number 1): 0.44
Growth Rate (Fibroblast; 18 h, replicate number 1): 0.53
Growth Rate (U2OS; 6 h, replicate number 1): -0.28
Growth Rate (U2OS; 6 h, replicate number 2): 0.38
Growth Rate (U2OS; 12 h, replicate number 1): 0.5
Growth Rate (U2OS; 12 h, replicate number 2): 0.69
Growth Rate (U2OS; 18 h, replicate number 1): 0.85
Growth Rate (U2OS; 18 h, replicate number 2): 0.68
Growth Rate (U2OS; 24 h, replicate number 1): 0.84
Growth Rate (U2OS; 24 h, replicate number 2): 0.85

CC(C)(c1ccc(OCc2cccc(COc3ccc(C(=N)N)cc3)c2)cc1)c1ccc(O[C@@H]2O[C@H](C(=O)O)[C@@H](O)[C@H](O)[C@H]2O)cc1.O=C(O)C(F)(F)F
Growth Rate (HEK-293T; 0 h, replicate number 1): 0.51
Growth Rate (HEK-293T; 0 h, replicate number 2): -0.08
Growth Rate (HEK-293T; 18 h, replicate number 1): 0.87
Growth Rate (HEK-293T; 24 h, replicate number 1): 1
Growth Rate (Fibroblast; 0 h, replicate number 1): -1
Growth Rate (Fibroblast; 6 h, replicate number 1): 0.34
Growth Rate (Fibroblast; 24 h, replicate number 1): 0.88
Growth Rate (Fibroblast; 24 h, replicate number 2): 0.92
Growth Rate (U2OS; 0 h, replicate number 1): 0.36
Growth Rate (U2OS; 0 h, replicate number 2): -0.17
Growth Rate (U2OS; 6 h, replicate number 1): 0.61
Growth Rate (U2OS; 6 h, replicate number 2): 0.56
Growth Rate (U2OS; 12 h, replicate number 1): 0.97
Growth Rate (U2OS; 12 h, replicate number 2): 0.68
Growth Rate (U2OS; 18 h, replicate number 1): -0.41
Growth Rate (U2OS; 18 h, replicate number 2): 0.89

O=C(O)CCCCN(CCc1cc(F)ccc1OCc1ccc(-c2ccc(C(F)(F)F)cc2)cc1)Cc1ccc(C(=O)O)cc1
Growth Rate (HEK-293T; 0 h, replicate number 1): 0.09
Growth Rate (HEK-293T; 0 h, replicate number 2): -0.87
Growth Rate (Fibroblast; 0 h, replicate number 1): -1
Growth Rate (Fibroblast; 0 h, replicate number 2): -0.98
Growth Rate (Fibroblast; 6 h, replicate number 1): 0.59
Growth Rate (Fibroblast; 12 h, replicate number 1): 0.66
Growth Rate (Fibroblast; 18 h, replicate number 1): 0.85
Growth Rate (Fibroblast; 24 h, replicate number 1): 0.96
Growth Rate (U2OS; 0 h, replicate number 1): 0.99
Growth Rate (U2OS; 0 h, replicate number 2): -0.4
Growth Rate (U2OS; 6 h, replicate number 1): 0.61
Growth Rate (U2OS; 6 h, replicate number 2): 0.58
Growth Rate (U2OS; 12 h, replicate number 2): 0.87
Growth Rate (U2OS; 18 h, replicate number 2): 0.85
Growth Rate (U2OS; 24 h, replicate number 2): 0.91

O=C(N[C@@H]1C2CCN(CC2)[C@H]1Cc1cccnc1)c1cc2ccccc2o1 [BRADANICLINE]
Growth Rate (HEK-293T; 0 h, replicate number 1): 0.69
Growth Rate (HEK-293T; 0 h, replicate number 2): 0.79
Growth Rate (HEK-293T; 18 h, replicate number 2): 0.96
Growth Rate (HEK-293T; 24 h, replicate number 1): 0.96
Growth Rate (Fibroblast; 0 h, replicate number 2): -0.99
Growth Rate (Fibroblast; 12 h, replicate number 1): -0.73
Growth Rate (Fibroblast; 18 h, replicate number 1): 0.35
Growth Rate (Fibroblast; 24 h, replicate number 1): 0.82
Growth Rate (U2OS; 6 h, replicate number 2): 0.66
Growth Rate (U2OS; 12 h, replicate number 2): 0.78
Growth Rate (U2OS; 18 h, replicate number 2): 0.99
Growth Rate (U2OS; 24 h, replicate number 1): 0.93
Growth Rate (U2OS; 24 h, replicate number 2): 0.96

CS(=O)(=O)CCNCc1ccc(-c2ccc3ncnc(Nc4ccc(OCc5cccc(F)c5)c(Cl)c4)c3c2)o1 [LAPATINIB]
Growth Rate (HEK-293T; 0 h, replicate number 1): 0.86
Growth Rate (HEK-293T; 6 h, replicate number 2): 0.95
Growth Rate (HEK-293T; 12 h, replicate number 2): 0.94
Growth Rate (HEK-293T; 18 h, replicate number 2): 0.95
Growth Rate (HEK-293T; 24 h, replicate number 2): 0.87
Growth Rate (Fibroblast; 0 h, replicate number 1): 0.88
Growth Rate (Fibroblast; 6 h, replicate number 1): -0.42
Growth Rate (Fibroblast; 6 h, replicate number 2): 0.69
Growth Rate (Fibroblast; 12 h, replicate number 2): 0.65
Growth Rate (Fibroblast; 18 h, replicate number 2): 0.7
Growth Rate (U2OS; 0 h, replicate number 1): 0.96
Growth Rate (U2OS; 6 h, replicate number 1): 0.66
Growth Rate (U2OS; 6 h, replicate number 2): 0.93
Growth Rate (U2OS; 12 h, replicate number 1): 0.78
Growth Rate (U2OS; 12 h, replicate number 2): 0.92
Growth Rate (U2OS; 18 h, replicate number 1): 0.86
Growth Rate (U2OS; 18 h, replicate number 2): 0.99
Growth Rate (U2OS; 24 h, replicate number 1): 0.9
Growth Rate (U2OS; 24 h, replicate number 2): 0.98

COc1ncc2cc(C(=O)Nc3cc(C(=O)NCc4cccc(Cl)c4)ccc3Cl)c(=O)[nH]c2n1
Growth Rate (HEK-293T; 6 h, replicate number 1): 0.22
Growth Rate (HEK-293T; 6 h, replicate number 2): -0.03
Growth Rate (HEK-293T; 12 h, replicate number 1): 0.64
Growth Rate (HEK-293T; 12 h, replicate number 2): 0.55
Growth Rate (HEK-293T; 18 h, replicate number 1): 0.51
Growth Rate (HEK-293T; 18 h, replicate number 2): 0.64
Growth Rate (HEK-293T; 24 h, replicate number 1): 0.67
Growth Rate (HEK-293T; 24 h, replicate number 2): 0.79
Growth Rate (Fibroblast; 0 h, replicate number 2): 0.35
Growth Rate (Fibroblast; 6 h, replicate number 2): -0.4
Growth Rate (Fibroblast; 12 h, replicate number 1): -0.98
Growth Rate (Fibroblast; 12 h, replicate number 2): 0.79
Growth Rate (Fibroblast; 18 h, replicate number 1): -0.46
Growth Rate (Fibroblast; 24 h, replicate number 1): 0.44
Growth Rate (Fibroblast; 24 h, replicate number 2): 0.92
Growth Rate (U2OS; 6 h, replicate number 2): 0.67
Growth Rate (U2OS; 18 h, replicate number 2): 0.97
Growth Rate (U2OS; 24 h, replicate number 2): 0.97

Cn1ncc(NC(=O)c2nc(-c3c(F)cccc3F)sc2N)c1N1CC[C@@H](N)[C@H](F)CC1
Growth Rate (HEK-293T; 0 h, replicate number 1): -1
Growth Rate (HEK-293T; 0 h, replicate number 2): -0.31
Growth Rate (HEK-293T; 24 h, replicate number 2): 0.77
Growth Rate (Fibroblast; 0 h, replicate number 1): -1
Growth Rate (U2OS; 0 h, replicate number 1): -1
Growth Rate (U2OS; 24 h, replicate number 2): 0.96

C[C@@H](CN1CC[C@@]2(C)c3cccc(O)c3C[C@@H]1C2(C)C)OCc1ccccc1.Cl
Growth Rate (HEK-293T; 0 h, replicate number 1): 0.44
Growth Rate (HEK-293T; 0 h, replicate number 2): -0.22
Growth Rate (HEK-293T; 6 h, replicate number 1): 0.31
Growth Rate (HEK-293T; 12 h, replicate number 1): 0.74
Growth Rate (HEK-293T; 18 h, replicate number 1): 0.77
Growth Rate (HEK-293T; 18 h, replicate number 2): 0.95
Growth Rate (HEK-293T; 24 h, replicate number 1): 0.8
Growth Rate (HEK-293T; 24 h, replicate number 2): 0.96
Growth Rate (Fibroblast; 0 h, replicate number 1): -1
Growth Rate (Fibroblast; 6 h, replicate number 1): 0.03
Growth Rate (Fibroblast; 6 h, replicate number 2): -0.28
Growth Rate (Fibroblast; 12 h, replicate number 2): 0.93
Growth Rate (Fibroblast; 18 h, replicate number 2): 1
Growth Rate (Fibroblast; 24 h, replicate number 2): 0.98
Growth Rate (U2OS; 0 h, replicate number 1): -0.32
Growth Rate (U2OS; 6 h, replicate number 1): 0.53
Growth Rate (U2OS; 6 h, replicate number 2): 0.85
Growth Rate (U2OS; 12 h, replicate number 1): 0.61
Growth Rate (U2OS; 12 h, replicate number 2): 0.78
Growth Rate (U2OS; 18 h, replicate number 1): 0.81
Growth Rate (U2OS; 18 h, replicate number 2): 0.98
Growth Rate (U2OS; 24 h, replicate number 1): 0.79

COP(=O)(CCC(N)C(=O)O)Oc1cccc(CC(=O)O)c1 (centres undefined)
Growth Rate (HEK-293T; 0 h, replicate number 1): 0.66
Growth Rate (HEK-293T; 12 h, replicate number 1): 0.97
Growth Rate (HEK-293T; 18 h, replicate number 1): 0.94
Growth Rate (HEK-293T; 24 h, replicate number 1): 0.92
Growth Rate (Fibroblast; 0 h, replicate number 1): -1
Growth Rate (Fibroblast; 0 h, replicate number 2): -0.57
Growth Rate (Fibroblast; 6 h, replicate number 1): 0.49
Growth Rate (Fibroblast; 12 h, replicate number 1): 0.92
Growth Rate (Fibroblast; 18 h, replicate number 1): 0.86
Growth Rate (Fibroblast; 24 h, replicate number 1): 0.74
Growth Rate (U2OS; 0 h, replicate number 1): 0.98
Growth Rate (U2OS; 6 h, replicate number 1): 0.8
Growth Rate (U2OS; 12 h, replicate number 2): 0.91
Growth Rate (U2OS; 24 h, replicate number 2): 0.93

CC(C)(O)c1coc(S(=O)(=O)NC(=O)Nc2c3c(cc4c2CCC4)CCC3)c1
Growth Rate (HEK-293T; 0 h, replicate number 1): -0.08
Growth Rate (HEK-293T; 0 h, replicate number 2): 0.34
Growth Rate (Fibroblast; 0 h, replicate number 2): 0.57
Growth Rate (Fibroblast; 24 h, replicate number 1): 0.99
Growth Rate (U2OS; 0 h, replicate number 1): 0.85
Growth Rate (U2OS; 6 h, replicate number 1): 0.92
Growth Rate (U2OS; 12 h, replicate number 1): 0.88
Growth Rate (U2OS; 12 h, replicate number 2): 0.89
Growth Rate (U2OS; 18 h, replicate number 2): 0.99
Growth Rate (U2OS; 24 h, replicate number 2): 0.94

Cl.N/C(=N\C(=O)c1nc(Cl)c(N)nc1N)NCc1ccccc1 [BENZAMIL HYDROCHLORIDE]
Growth Rate (HEK-293T; 6 h, replicate number 1): 0.83
Growth Rate (HEK-293T; 6 h, replicate number 2): 0.79
Growth Rate (HEK-293T; 12 h, replicate number 2): 1
Growth Rate (Fibroblast; 0 h, replicate number 1): 0.69
Growth Rate (Fibroblast; 6 h, replicate number 1): -0.25
Growth Rate (Fibroblast; 6 h, replicate number 2): -0.19
Growth Rate (Fibroblast; 12 h, replicate number 2): 0.56
Growth Rate (Fibroblast; 18 h, replicate number 2): 0.68
Growth Rate (Fibroblast; 24 h, replicate number 2): 0.74
Growth Rate (U2OS; 0 h, replicate number 1): 0.13
Growth Rate (U2OS; 12 h, replicate number 2): 0.99
Growth Rate (U2OS; 18 h, replicate number 1): 1
Growth Rate (U2OS; 24 h, replicate number 2): 0.94

CN1CCc2cc(Nc3ncc(C(F)(F)F)c(NCc4cc[nH]n4)n3)ccc2C1
Growth Rate (HEK-293T; 0 h, replicate number 1): -0.94
Growth Rate (HEK-293T; 12 h, replicate number 2): 0.73
Growth Rate (HEK-293T; 18 h, replicate number 1): 0.42
Growth Rate (HEK-293T; 18 h, replicate number 2): 0.47
Growth Rate (HEK-293T; 24 h, replicate number 1): 0.29
Growth Rate (HEK-293T; 24 h, replicate number 2): 0.14
Growth Rate (Fibroblast; 0 h, replicate number 1): -0.24
Growth Rate (Fibroblast; 0 h, replicate number 2): -0.64
Growth Rate (U2OS; 6 h, replicate number 2): 0.87
Growth Rate (U2OS; 12 h, replicate number 2): 0.56
Growth Rate (U2OS; 18 h, replicate number 1): 0.84
Growth Rate (U2OS; 18 h, replicate number 2): 0.37
Growth Rate (U2OS; 24 h, replicate number 1): 0.58
Growth Rate (U2OS; 24 h, replicate number 2): 0.22

COc1cc(Nc2ccc([N+](=O)[O-])cc2C(=O)O)cc2ccccc12
Growth Rate (HEK-293T; 0 h, replicate number 1): 0.41
Growth Rate (HEK-293T; 0 h, replicate number 2): 0.13
Growth Rate (Fibroblast; 6 h, replicate number 2): -0.6
Growth Rate (Fibroblast; 12 h, replicate number 2): 0.4
Growth Rate (Fibroblast; 18 h, replicate number 1): -0.31
Growth Rate (Fibroblast; 18 h, replicate number 2): 0.45
Growth Rate (Fibroblast; 24 h, replicate number 1): 0.68
Growth Rate (Fibroblast; 24 h, replicate number 2): 0.63
Growth Rate (U2OS; 0 h, replicate number 1): 0.77
Growth Rate (U2OS; 0 h, replicate number 2): -0.1
Growth Rate (U2OS; 24 h, replicate number 1): 0.98
